According to patent publication US8785424B2, “ngCycloartanone derivatives with anticancer activity” (Pierre Fabre Medicament, priority 2009, dated 2014):

Test system: proteasome
Assay: Cellular proteasome inhibition test: accumulation of 4Ub-Luc reporter (luciferase activity) in DLD-1 4Ub-Luc cell line
Format: cell-based, human
Conditions: DLD-1 4Ub-Luc cells, 8 hours, epoxomicin = 100%
Description: Biological tests were carried out according to protocols described in the following articles: Ausseil F. et al. J. Biomol Screen. 2007, 12, 106-116 and Vandenberghe I. et al. Biochemical Pharmacology 2008, 76, 453-462.
In order to select novel proteasome inhibitor compounds, it is necessary to indirectly measure the activity of this proteasome within cells. To this end, we constructed a stable cell line, DLD-1 4Ub-Luc, arising from a human colon cancer cell line, which produces a chimeric reporter protein called 4Ub-Luc. This protein is a fusion between a 4-ubiquitin (4Ub) label and luciferase (Luc). This label is capable to direct every proteins that carry it toward the proteasome. The 4Ub-Luc protein is thus efficiently degraded by the proteasome, in contrast to the “wild” non-fused Luc protein. When the DLD-1 4Ub-Luc cell line is treated with a proteasome inhibitor, the fusion protein is much less efficiently degraded and accumulates in the cell. This accumulation is detected by an increase in luciferase activity in the treated extract compared to the extract from untreated cells. The control consists of verifying that the inhibitor has no effect on accumulation of the wild Luc protein produced by the stable DLD-1 RF cell line. For both cell lines and for each product an induction factor is determined for the product tested (or the reference) corresponding to the ratio between the luciferase activities measured in cells treated with this product (or the reference) and cells treated with solvent alone.
The product's activity is then defined by its relative induction factor, i.e., the ratio of its induction factor (IF % luminescence) to that of the reference molecule epoxomicin (IF=100%; see data presented in the table below).
Thus, the test established by Pierre-Fabre is a cellular test that has the advantage, compared to a purely enzymatic test, of detecting only products capable of penetrating the cell.
Two cell lines are used for this test: DLD-1 RF and DLD-1 4Ub-Luc. The culture medium used is as follows: • MEM • 5% fetal calf serum • 5 ml of penicillin-streptomycin • 2.5 ml of FUNGIZONE® (Amphotericin B) • 10 ml of […]
Day 1: Inoculate white 96-well culture-treated plates (PerkinElmer White ViewPlate, product no. 6005181) with 100 μl of 1·10^5 c/ml cell suspension per well. Incubate for 24 hours so that the cells adhere. On each plate five columns will be inoculated with DLD-1 4Ub-Luc and five others with DLD-1 RF according to diagram 1 below.
Day 2: Remove the medium by turning the plates upside down on cotton, and then carry out the treatment with the compounds of the invention, with solvent alone or with a reference compound such as epoxomicin. […]
The columns are paired (examples 2 and 8, 3 and 9, 4 and 10 and 5 and 11) and treated with the same compound. Columns 6 and 7 receive the experimental control, namely 0.1% DMSO in culture medium for wells B, C, D, and E of columns 6 and 7, and the positive control (10^−7 M epoxomicin) in wells F and G.
After incubation, turn the plate upside down on cotton to empty the wells, rinse with 50 μl of PBS to remove any trace of the cytotoxin tested and then add 50 μl of 5× passive lysis buffer (Promega, product no. E1941) diluted to ⅕ in water. Shake energetically using a plate shaker for 5 to 10 minutes at room temperature before freezing at −20° C.
Luciferase activity is measured using a Luciferase Assay System 10-Pack kit (Promega, product no. E1501).
On the day luciferase activity is to be measured, defrost the plates and wait until they have returned to room temperature. The optimal temperature for luciferase activity is 20-25° C.
Reconstitute the firefly luciferase substrate by defrosting the buffer and then adding 10 ml of buffer to the bottle containing the freeze-dried substrate. Wait until the solution is at room temperature before beginning the assay. […]

[1] = concentration tested 5 · 10^−6 M
[2] = concentration tested 5 · 10^−7 M

Row | SMILES | relative induction factor (IF % luminescence) versus epoxomicin [1] | relative induction factor (IF % luminescence) versus epoxomicin [2] | relative induction factor (IF % luminescence) versus epoxomicin (concentration tested 10^−5 M) | relative induction factor (IF % luminescence) versus epoxomicin (concentration tested 10^−6 M)
1 | C=C(C(=O)[C@H](O)[C@@H](C)[C@H]1[C@@H](OC(C)=O)C[C@@]2(C)[C@@H]3CC[C@H]4[C@H](C)C(=O)C=C[C@@]45C[C@@]35CC[C@]12C)[C@@H](C)CO [Compound 1, 22-deacetyl-neoboutomellerone] | 28% | 1% | 3% | 45%
2 | C=C(C(=O)[C@H](OC(C)=O)[C@@H](C)[C@H]1[C@@H](OC(C)=O)C[C@@]2(C)[C@@H]3CC[C@H]4[C@H](C)C(=O)C=C[C@@]45C[C@@]35CC[C@]12C)[C@@H](C)CO [Compound 2, Neoboutomellerone] | 37% | 2% | 4% | 48%
3 | C=C(C(=O)[C@H](OC(C)=O)[C@@H](C)[C@H]1[C@@H](OC(C)=O)C[C@@]2(C)C3CCC4C(C)C(=O)C=CC45CC35CC[C@]12C)[C@@H](C)CO (stereo partly drawn) [Compound 4, Diastereoisomer of Ring A of Neoboutomellerone] | 84% |  | 24% | 2%
4 | C=C(C(=O)[C@H](OC(C)=O)[C@@H](C)[C@H]1[C@@H](OC(C)=O)C[C@@]2(C)[C@@H]3C[C@@H](O)[C@H]4[C@H](C)C(=O)C=C[C@@]45C[C@@]35CC[C@]12C)[C@@H](C)CO [Compound 6, 6-hydroxy-neoboutomellerone] | 31% |  |  | 5%
5 | C=C(C(=O)[C@H](O)[C@@H](C)[C@H]1[C@@H](OC(C)=O)C[C@@]2(C)[C@@H]3CC[C@H]4[C@H](C)C(=O)C=C[C@@]45C[C@@]35CC[C@]12C)C(C)C [Compound 7, 22-deacetyl,26-dehydroxy-neoboutomellerone] | 65% |  | 21% | 2%
6 | C=C(C(=O)[C@H](OC(C)=O)[C@@H](C)[C@H]1[C@@H](OC(C)=O)C[C@@]2(C)[C@@H]3CC[C@H]4[C@H](C)C(=O)C=C[C@@]45C[C@@]35CC[C@]12C)C(C)C [Compound 8, 26-dehydroxy-neoboutomellerone] | 74% |  | 19% | 7%
7 | CC(=O)O[C@H]1C[C@@]2(C)[C@@H]3CC[C@H]4[C@H](C)C(=O)C=C[C@@]45C[C@@]35CC[C@]2(C)[C@H]1[C@H](C)[C@@H](OC(C)=O)C(=O)C=C(C)C [Compound 9, 26-dehydroxy,24,25-dehydro-nor-neoboutomellerone] | 34% |  | 44% | 1%
8 | CC(=O)O[C@H]1C[C@@]2(C)[C@@H]3CC[C@H]4[C@H](C)C(=O)C=C[C@@]45C[C@@]35CC[C@]2(C)[C@H]1[C@H](C)[C@@H](O)C(=O)C=C(C)C [Compound 10, 22-deacetyl,26-dehydroxy,24,25-dehydro-nor-neoboutomellerone] | 5% |  | 53% | 1%
9 | C=C(C(=O)[C@H](OC(C)=O)[C@@H](C)[C@H]1[C@@H](OC(C)=O)C[C@@]2(C)[C@@H]3CC[C@H]4[C@H](C)C(=O)CC[C@@]45C[C@@]35CC[C@]12C)[C@@H](C)CO [Compound 11, 1,2-dihydro-neoboutomellerone] | 45% |  | 48% | 1%
10 | C=C(C(=O)[C@H](OC(C)=O)[C@@H](C)[C@H]1[C@@H](OC(C)=O)C[C@@]2(C)[C@@H]3[C@H]4O[C@H]4[C@H]4[C@H](C)C(=O)C=C[C@@]45C[C@@]35CC[C@]12C)[C@@H](C)CO [Compound 12, 6,7-epoxy-neoboutomellerone] | 72% |  | 15% | 3%
11 | C=C(C(=O)C(OC(C)=O)C(C)[C@H]1[C@@H](OC(C)=O)C[C@@]2(C)[C@@H]3CC[C@H]4[C@H](C)C(=O)C=C[C@@]45C[C@@]35CC[C@]12C)C(C)CO (stereo partly drawn) [Compound 13, Diastereoisomer on the Side Chain of Neoboutomellerone] | 71% |  | 60% | 2%
12 | C=C(C(=O)[C@H](O)[C@@H](C)[C@H]1[C@@H](OC(C)=O)C[C@@]2(C)[C@@H]3CC[C@H]4[C@H](C)C(=O)CC[C@@]45C[C@@]35CC[C@]12C)[C@@H](C)CO [Compound 14, 1,2-dihydro-22-deacetyl-neoboutomellerone] | 10% |  | 77% | 1%
13 | C=C(C(=O)[C@H](O)[C@@H](C)[C@H]1[C@@H](OC(C)=O)C[C@@]2(C)[C@@H]3CC[C@H]4[C@H](C)C(=O)C[C@H](O)[C@@]45C[C@@]35CC[C@]12C)[C@@H](C)CO [Compound 15, 1-hydroxy-2-hydro-22-deacetyl-neoboutomellerone] | 11% |  | 74% | 2%
14 | C=C(C(=O)[C@H](O)[C@@H](C)[C@H]1[C@@H](OC(C)=O)C[C@@]2(C)[C@@H]3C[C@@H](O)[C@H]4[C@H](C)C(=O)C=C[C@@]45C[C@@]35CC[C@]12C)[C@@H](C)CO [Compound 16, 6-hydroxy-22-deacetyl-neoboutomellerone] | 35% |  |  | 1%
15 | C=C(C(=O)[C@H](O)[C@@H](C)[C@H]1[C@@H](OC(C)=O)C[C@@]2(C)C3CCC4[C@H](C)C(=O)C=C[C@@]45C[C@@]35CC[C@]12C)[C@@H](C)COC(C)=O (stereo partly shown) [Compound 17, 26-acetyl-22-deacetyl-neoboutomellerone] | 29% | 2% | 6% | 26%
16 | C=C(C(=O)[C@H](OC(C)=O)[C@@H](C)[C@H]1[C@@H](OC(C)=O)C[C@@]2(C)[C@@H]3CC[C@H]4[C@H](C)C(=O)C=C[C@@]45C[C@@]35CC[C@]12C)[C@@H](C)COC(C)=O [Compound 18, 26-acetyl-neoboutomellerone] | 48% | 1% |  | 12%
17 | C=C(C(=O)[C@H](OC(C)=O)[C@@H](C)[C@H]1[C@@H](OC(C)=O)C[C@@]2(C)[C@@H]3CC[C@H]4[C@H](C)C(=O)C=C[C@@]45C[C@@]35CC[C@]12C)[C@@H](C)COC [Compound 19, 26-methoxy-neoboutomellerone] | 45% | 1% |  | 40%
